Values after ≈ are worked out from the molar mass of the structure shown.

Experiment [1] concerns Staphylococcus aureus S13E. It counts as cell-based. The procedure:
(§1) The MIC's were determined using a standard broth micro-dilution assay.

For experiment [2], the system named is Staphylococcus aureus SA1199B. In kind it is cell-based. The procedure:
as §1

Experiment [3] concerns Entercoccus faecium 180-1. Kind of experiment: broth micro-dilution MIC. In kind it is cell-based. On the procedure:
as §1

In a further experiment the test system is Entercoccus faecium 276. Put plainly: broth micro-dilution MIC. In kind it is cell-based. The procedure:
as §1

Experiment [4] concerns Staphylococcus aureus 489. Kind of experiment: broth micro-dilution MIC. In kind it is cell-based. On the procedure: as §1
In experiment [5] the test system is Staphylococcus aureus 491. Put plainly: broth micro-dilution MIC. It counts as cell-based. On the procedure:
as §1

Experiment [6] relates to Staphylococcus aureus SA1199A. Kind of experiment: broth micro-dilution MIC. In kind it is cell-based. On the procedure:
as §1

The subject of experiment [7] is Staphylococcus aureus SA1199. Put plainly: broth micro-dilution MIC. In kind it is cell-based. The procedure:
as §1

Experiment [8] relates to Staphylococcus aureus X400. Kind of experiment: broth micro-dilution MIC. It counts as cell-based. The procedure:
as §1

The test system of experiment [9] is Staphylococcus aureus X778. Put plainly: broth micro-dilution MIC. It counts as cell-based. On the procedure:
as §1

Experiment [10] relates to Streptococcus pyogenes C203. Kind of experiment: broth micro-dilution MIC. It counts as cell-based. The procedure:
as §1

The next experiment deals with Entercoccus faecium 180. Put plainly: broth micro-dilution MIC. In kind it is cell-based. Particulars: Entercoccus faecium 180. The procedure: (§2) The formula I compounds have in vitro and in vivo activity against Gram-positive pathogenic bacteria. The MIC's were determined using a standard broth micro-dilution assay.
The next experiment relates to Entercoccus faecium 2041. Put plainly: broth micro-dilution MIC. In kind it is cell-based. The settings on record: Entercoccus faecium 2041. On the procedure: as §2
Experiment [11] relates to Enterococcus gallinarum 245. Put plainly: broth micro-dilution MIC. The settings on record: Enterococcus gallinarum 245. In kind it is cell-based. On the procedure:
as §2

The test system of experiment [12] is Staphylococcus epidermidis 270. Put plainly: broth micro-dilution MIC. It counts as cell-based. On the procedure:
as §2

The subject of experiment [13] is Staphylococcus haemolyticus 105. Put plainly: broth micro-dilution MIC. In kind it is cell-based. On the procedure:
as §2

Experiment [14] has as its system Staphylococcus haemolyticus 415. Put plainly: broth micro-dilution MIC. It counts as cell-based. On the procedure: as §2
Experiment [15] has as its system Streptococcus pneumoniae P1. Put plainly: broth micro-dilution MIC. In kind it is cell-based. The procedure:
as §2

The test system of experiment [16] is vancomycin-resistant enterococci. Kind of experiment: broth micro-dilution, mean geometric MIC. The settings on record: enterococci, 24-hour incubation. In kind it is cell-based, Enterococcus faecium and Enterococcus faecalis.
The subject of experiment [17] is vancomycin-susceptible enterococci. Kind of experiment: broth micro-dilution, mean geometric MIC. It counts as cell-based, Enterococcus faecium and Enterococcus faecalis. The settings on record: enterococci, 24-hour incubation.
Experiment [18] concerns Staphylococcus aureus 446. Put plainly: broth micro-dilution MIC. In kind it is cell-based. The procedure: as §1
In experiment [19] the test system is Staphylococcus aureus 447. Kind of experiment: broth micro-dilution MIC. In kind it is cell-based. On the procedure:
as §1

In the case of `CNC(CC(C)C)C(=O)NC1C(=O)NC(CC(N)=O)C(=O)NC2C(=O)NC3C(=O)NC(C(=O)NC(C(=O)O)c4cc(O)cc(O)c4-c4cc3ccc4O)C(OC3CC(C)(N)C(O)C(C)O3)c3ccc(c(Cl)c3)Oc3cc2cc(c3OC2OC(CO)C(O)C(O)C2OC2CC(C)(NCc3ccc(Oc4ccccc4Cl)c([N+](=O)[O-])c3)C(O)C(C)O2)Oc2ccc(cc2Cl)C1O` (centres unmarked) [Compound 88], the MIC is 1 µg/mL (≈ 0.539 µM) in [1]; 1 µg/mL (≈ 0.539 µM) in experiment [2]; at most 0.06 µg/mL in [3]; at most 0.06 µg/mL with Entercoccus faecium 276; 0.5 µg/mL (≈ 0.27 µM) in experiment [4]; 0.5 µg/mL (≈ 0.27 µM) in experiment [5]. Moreover, the MIC in experiment [6] was at most 0.06 µg/mL; in experiment [7] it was 1 µg/mL (≈ 0.539 µM); in experiment [8], at most 0.06 µg/mL; in experiment [9] it was 0.5 µg/mL (≈ 0.27 µM); in experiment [10], at most 0.06 µg/mL; against Entercoccus faecium 180, 0.125 µg/mL (≈ 0.0674 µM). Also, the MIC was at most 0.06 µg/mL against Entercoccus faecium 2041; at most 0.06 µg/mL in experiment [11]; 1 µg/mL (≈ 0.539 µM) in experiment [12]; 1 µg/mL (≈ 0.539 µM) in experiment [13]; 2 µg/mL (≈ 1.08 µM) in [14]; at most 0.06 µg/mL in experiment [15]. The “mean geometric MIC, Vancomycin Resistant Strains” value in [16] is 1.7 µg/mL. The “mean geometric MIC, Vancomycin Sensitive Strains” value in experiment [17] was 0.055 µg/mL.
As for `CN[C@H](CC(C)C)C(=O)N[C@H]1C(=O)N[C@@H](CC(N)=O)C(=O)N[C@H]2C(=O)N[C@H]3C(=O)N[C@H](C(=O)N[C@H](C(=O)O)c4cc(O)cc(O)c4-c4cc3ccc4O)[C@H](O[C@H]3C[C@](C)(N)[C@@H](O)[C@H](C)O3)c3ccc(c(Cl)c3)Oc3cc2cc(c3O[C@@H]2O[C@H](CO)[C@@H](O)[C@H](O)[C@H]2O[C@H]2C[C@](C)(NCc3ccc(-c4cccc(F)c4)cc3)[C@@H](O)[C@H](C)O2)Oc2ccc(cc2Cl)[C@H]1O` [Compound 92], the MIC is 0.125 µg/mL (≈ 0.0704 µM) in experiment [1]; 0.5 µg/mL (≈ 0.281 µM) in experiment [2]; at most 0.06 µg/mL in experiment [3]; 0.125 µg/mL (≈ 0.0704 µM) against Entercoccus faecium 276; 2 µg/mL (≈ 1.13 µM) in experiment [18]; 0.5 µg/mL (≈ 0.281 µM) in [19]. Also, the MIC in experiment [4] is at most 0.06 µg/mL; in experiment [5], 1 µg/mL (≈ 0.563 µM); in experiment [6] it was at most 0.06 µg/mL; in experiment [7], 1 µg/mL (≈ 0.563 µM); in [8], 0.5 µg/mL (≈ 0.281 µM); in [10] it was at most 0.06 µg/mL. Moreover, the MIC against Entercoccus faecium 180 amounted to 0.125 µg/mL (≈ 0.0704 µM); in the experiment on Entercoccus faecium 2041, 0.125 µg/mL (≈ 0.0704 µM); in [11], 2 µg/mL (≈ 1.13 µM); in experiment [12], 1 µg/mL (≈ 0.563 µM); in [13] it was 2 µg/mL (≈ 1.13 µM); in [14] it was 2 µg/mL (≈ 1.13 µM). The same compound registered an MIC in [15] of at most 0.06 µg/mL. The “mean geometric MIC, Vancomycin Resistant Strains” value in experiment [16] turned out to be 1.7 µg/mL. Moreover, in [17], the “mean geometric MIC, Vancomycin Sensitive Strains” value was 0.082 µg/mL.
